The text below walks through data of US20080207560A1, “Composition For External Use” (priority 2005, published 2008).

The data set can be described thus: Solubility in phosphate buffer (statement). In kind it is physicochemical.

Molecules are shown by their SMILES.

For the compound `CC1=C(/C=C/C(C)=C/C=C/C(C)=C/C(=O)Oc2cc(C)c3c(c2)CC[C@@](C)(CCC[C@H](C)CCC[C@H](C)CCCC(C)C)O3)C(C)(C)CCC1` [d-δ-tocopheryl retinoate], the “solubility in phosphate buffer” value was “sparingly soluble”.
